Tests used:
[1] = 101.33 kPa, Liquid, Vibrating tube method
[2] = xn = mol fraction of the nth substance listed; details: 101 kPa, Liquid, Vibrating tube method

CN(C)C=O [dimethylformamide]
[1]
Details | mass density [kg/m3]
293.15 K | 948.79
298.15 K | 943.87
303.15 K | 938.98
308.15 K | 934.07
313.15 K | 929.11
318.15 K | 924.04
323.15 K | 918.91

CCCC[N+]1(C)CCCC1.O=S(=O)([N-]S(=O)(=O)C(F)(F)F)C(F)(F)F + CN(C)C=O
mass density [kg/m3], [2]
Details | x1 = 0.0912 | x1 = 0.1871 | x1 = 0.2922 | x1 = 0.3783 | x1 = 0.4845 | x1 = 0.5809 | x1 = 0.6768 | x1 = 0.7744 | x1 = 0.8686
293.15 K | 1074.98 | 1161.1 | 1224.53 | 1262.14 | 1298.31 | 1324.74 | 1346.86 | 1366.1 | 1381.39
298.15 K | 1070.09 | 1156.23 | 1219.62 | 1257.32 | 1293.53 | 1319.99 | 1342.16 | 1361.38 | 1376.73
303.15 K | 1065.22 | 1151.35 | 1214.77 | 1252.53 | 1288.82 | 1315.37 | 1337.55 | 1356.72 | 1372.14
308.15 K | 1060.4 | 1146.5 | 1210 | 1247.8 | 1284.1 | 1310.7 | 1332.9 | 1352 | 1367.6
313.15 K | 1055.43 | 1141.58 | 1205.17 | 1243.01 | 1279.29 | 1306.04 | 1328.25 | 1347.28 | 1363.02
318.15 K | 1050.48 | 1136.63 | 1200.26 | 1238.22 | 1274.53 | 1301.32 | 1323.54 | 1342.91 | 1358.3
323.15 K | 1045.36 | 1131.55 | 1195.32 | 1233.32 | 1269.65 | 1296.48 | 1318.83 | 1338.2 | 1353.61

CNC=O [N-methylformamide]
[1]
Details | mass density [kg/m3]
293.15 K | 1003.59
298.15 K | 999.19
303.15 K | 994.75
308.15 K | 990.33
313.15 K | 985.78
318.15 K | 981.23
323.15 K | 976.57

Source: the NIST ThermoML archive (doi:10.1021/je300941v)
